According to patent US11648258B2, “Method and compounds for inhibiting the MCM complex and their application in cancer treatment” (priority 2012, dated 2023):
Entries after “also recorded” stand apart in the source; their conditions may differ. Where two headings read alike, the source gives them in different places.

How the values were obtained:
[1] = target: T1, hMcm2-hMcm6 interaction (MCM complex) (Homo sapiens, UniProt P49736+Q14566); assay: Co-immunoprecipitation of MCM subunits in HeLa cell extracts; assay type: cell-based; details: asynchronous HeLa cells, whole cell extracts
T1 construct: endogenous in cells; host or cells: HeLa
Procedure: To test if 17beta-Deacetyltanghinin targets hMcm2 and hMcm6 proteins in human cells, possible co-immunoprecipitation (co-IP) of the two proteins was tested in human cell extracts from cells treated with 17beta-Deacetyltanghinin. In FIG. 3, asynchronous HeLa cells were treated with DMSO or 17beta-Deacetyltanghinin (DAT) (FIG. 3A), or with DMSO, 17beta-Neriifolin (NRF) or 17beta-Deacetyltanghinin diol (Diol) (FIG. 3B), and whole cell extracts were prepared and further incubated with the compound before being used for co-IP in the presence of the compound. The immunoprecipitates were then immunoblotted with anti-hMcm 6, anti-hMcm2, anti-hMcm4 and anti-hMcm7 antibodies.

[2] = test system: cancer cells (HeLa, HepG2); assay: Flow cytometry / Annexin V staining (cell cycle, apoptosis) in cancer cells; assay type: cell-based, human; details: cancer cells
Procedure: Both floating and attached cells were collected and washed once with PBS. Cells were fixed in 70% ethanol for 1 hr to overnight at −20° C., washed thoroughly with PBS, and then stained in 50 μg/ml RNase A, 0.1% Triton X-100, 0.1 mM EDTA (pH 7.4), and 50 μg/ml propidium iodide for 30 min at 4° C. Samples were analyzed with the FACSort instrument (Becton Dickinson).
Moreover, inhibition of DNA replication and subsequent induction of apoptosis by 17beta-Deacetyltanghinin could be shown by flow cytometry. In FIG. 7. Hela cells were blocked at M phase by Nocodazole (Noc.; FIG. 7A), the G1/S transition by mimosine (MMS; FIG. 7B), or at early S phase by Hydroxyurea (HU; FIG. 7C) and then released into fresh medium in the presence of 17beta-Deacetyltanghinin (DAT). The cells at different time points after release were analyzed by follow cytometry. Ayn. means asynchronous cells. Untreated cells and cells treated with the solvent DMSO could complete M, G1 and S phases after release (FIG. 7A). […] Similarly, cells released from the Mimosine (MMS) arrest (at the G1/S transition; FIG. 7B) or Hydroxyurea (HU) arrest (in early S phase; FIG. 7C) could not finish S phase in the presence of 17beta-Deacetyltanghinin.
In FIG. 8A, flow cytometry was performed to analyze the DNA contents in HepG2 and L-02 cells treated with 17beta-Deacetyltanghinin at various concentrations for 24 hrs. In FIG. 8B, Hela cells were treated with 17beta-Deacetyltanghinin for 24 hrs and labeled with Annexin V-Cy3 (Arm. Cy3) for 20 min. Mitoxantrone (MTX), a clinical anticancer drug that can induce apoptosis in cancer cells, was used as a positive control.

[3] = test system: cancer cell lines (HepG2, Hep3B, HeLa, HK1, C666-1); assay: cells; assay type: cell-based, human; details: for anti-proliferative (anticancer) activity, in words: 48 hrs
Procedure: (§1) For testing the anti-proliferation activity of the compounds in human cell lines and calculation of IC50, cancer cells including HepG2, HeLa and Hep3B (4×10^5 cells/well) and normal L-02 cells (5×10^5 cells/well) were respectively seeded in 96-well plates in 100 μl of culture medium and incubated for about 12 hrs at 37° C. The cells were treated with two-fold serial dilutions of the drugs for 48 hrs. Medium was removed and 100 μl of culture medium containing 1 μM WST-1 (water soluble tetrazolium-1) were added to each well. The cells were incubated for 2 hrs, and absorbance at 405 nm (reference at 630 nm) was then measured. To construct the standard curve of the relationship between cell number and absorbance at OD405, serial dilutions of cells with known cell numbers were seeded and incubated for six hrs before being measured by the WST-1 assay. The cell viability was expressed as the ratio of the number of live cells treated with a candidate compound versus that of the DMSO-treated cells.
(§2) To further test 17beta-Deacetyltanghinin and to determine the IC50 values, besides L-02 and HepG2, Hep3B (another liver cancer cell line which is p53-negative), HeLa (cervical cancer cell line), HK1 and C666-1 (nasopharyngeal carcinoma) cells and a hTert-immortalized normal nasopharyngeal cell line (NP460) were treated by 17beta-Deacetyltanghinin for 48 hrs, and the relative cell vabilities were determined by WST-1 assay (FIG. 2B, C).

[4] = target: T2, hMcm2 and hMcm6 (Homo sapiens, UniProt P49736+Q14566); assay: Immunostaining / GFP fluorescence microscopy of MCM nuclear localization in HeLa cells; assay type: cell-based; details: 24 hrs
T2 construct: the endogenous hMcm2 and hMcm6 were detected by specific antibodies against these proteins; endogenous in cells; host or cells: HeLa
Procedure: To study the effect of the anticancer compounds on the interaction between hMcm2 and hMcm6 in the cells, immunostaining was performed to detect the sub-cellular localization of the proteins. HeLa cells grown on cover slips (coated with poly-D-lysine) with or without drug treatment were fixed with 4% PFA in PBS at room temperature for 20 min. After permeabilization with 0.1% Triton X-100 and 1% BSA in PBS for 20 min, cells were blocked with 1% BSA and then incubated with rabbit anti-hMcm6 (Santa Cruz; 1:500) and mouse anti-hMcm2 (Becton Dickinson; 1:500) primary antibodies at room temperature for 1 hr. Cells were then incubated with Alexa Fluor 488-conjugated donkey […] antibody and Alexa Fluor 594-conjugated donkey anti-mouse antibody (Invitrogen; 1:500) at room temperature for 1 hr. Three washes with PBS were performed after each round of antibody incubation. Cells were then incubated with Hochest 33852 (Sigma Chemical Company; 1 μg/ml) at room temperature for 15 min for nuclear staining and washed with PBS three times again. At last, cells were mounted and observed under the fluorescence microscope (Nikon TE2000E).
Because pair-wise interactions among the MCM subunits are required for the MCM heterohexameric ring structure, which is essential for their import into the nucleus, disruption of the interaction between hMcm2 and hMcm6 should destroy the hexamer and result in failure of nuclear localization of MCM proteins. To test this, we employed both indirect fluorescence microscopy (immunostaining) using antibodies against the endogenous MCM proteins and direct fluorescence microscopy after transfection with plasmids to express hMcm2-GFP and hMcm6-GFP in the cells.
In immunostaining, HeLa cells were treated by 17beta-Deacetyltanghinin for 24 hrs, and the endogenous hMcm2 and hMcm6 were detected by specific antibodies against these proteins. […] In direct fluorescence microscopy, HeLa cells expressing hMcm2-GFP and hMcm6-GFP were treated with 17beta-Deacetyltanghinin for 36 hrs starting at 4 hrs post-transfection with the plasmids expressing hMcm2-GFP and hMcm6-GFP.

[5] = test system: HepG2 cells (hepatocellular carcinoma); details: compound 0.5 ∝g/ml; WST-1
[6] = in vitro; details: human
Procedure: as §1
(§3) A pair of human cell lines, L-02 (normal liver cells) and HepG2 (a liver cancer cell line) was treated with 17beta-Deacetyltanghinin for 48 hrs. […] In FIG. 2B-H, quantification of viable cell numbers was carried out using WST-1 (Water-soluble tetrazolium-1) assay.
as §2

[7] = test system: L-02 cells (normal human liver cells); assay: in vitro; details: compound 0.5 ∝g/ml; WST-1
Procedure: as §1, §3, §2

[8] = In vivo toxicity assessment in nude mice; details: 10 mg/kg per injection, tumor-bearing nude mice
Procedure: (§4) A further set of animal experiments was then conducted with a longer period of time, in which fifteen drug injections at 5.0 mg/kg were performed one week after tumor inoculation when the tumor size reached 0.05-0.1 cm^3. In FIG. 10B, drug injections and tumor size measurements were performed on the days represented by the data points, and the photographs in FIG. 10C were taken on day 20.
In FIG. 11, S refers to solvent-treated mice without tumor inoculation; S+T represents solvent-treated mice with tumor inoculation; DAT refers to 17beta-Deacetyltanghinin-treated mice without tumor inoculation; DAT+T represents 17beta-Deacetyltanghinin-treated mice with tumor inoculation; and P+T refers to Paelitaxel-treated mice with tumor inoculation. Three out of the five mice with intermediate tumor size in each group were selected for physiological parameters examination. The tumors (T) and internal organs including liver (L), heart (H) and kidney (K) were dissected from each mouse.
Furthermore, blood from each mouse was also collected for the tests of the ALT (alanine aminotransferase) and LDH (Lactate dehydrogenase) activities. […] The results of both tests were represented as the values of differently treated mice relative to the untreated ones.

[9] = test system: HeLa cells xenograft tumors; assay: In vivo anticancer activity, nude mice xenograft model; details: 10 mg/kg per injection, first 10 days
Procedure: In vivo anticancer activity tests were carried out in the nude mice xenograft model by inoculating nude mice with HeLa cells in both the left and right flanks. After random grouping, nude mice were treated intraperitoneally with 17beta-Deacetyltanghinin or the solvent (30% of propylene glycol in PBS). In the first test, 3 days after tumor inoculation when small tumors started to form, two groups of nude mice were treated on days 1-3 and 6-10 with 3.5 and 7.0 mg-drug/kg-body weight of 17beta-Deacetyltanghinin respectively, and another group of control mice were treated with the same volume of the solvent (FIG. 10A). In FIG. 10A, the tumor volume data represented by the small-size data point symbol linked with thin lines were obtained on the days when both measurement of tumor size and drug injections were performed, and the tumor volume data represented by the large-size data point symbol linked with thick lines were obtained on the days without drug injection. Each tumor size was average of ten tumors in five mice in each group.
as §4

T1 sequence (P49736 2-904 limits assumed): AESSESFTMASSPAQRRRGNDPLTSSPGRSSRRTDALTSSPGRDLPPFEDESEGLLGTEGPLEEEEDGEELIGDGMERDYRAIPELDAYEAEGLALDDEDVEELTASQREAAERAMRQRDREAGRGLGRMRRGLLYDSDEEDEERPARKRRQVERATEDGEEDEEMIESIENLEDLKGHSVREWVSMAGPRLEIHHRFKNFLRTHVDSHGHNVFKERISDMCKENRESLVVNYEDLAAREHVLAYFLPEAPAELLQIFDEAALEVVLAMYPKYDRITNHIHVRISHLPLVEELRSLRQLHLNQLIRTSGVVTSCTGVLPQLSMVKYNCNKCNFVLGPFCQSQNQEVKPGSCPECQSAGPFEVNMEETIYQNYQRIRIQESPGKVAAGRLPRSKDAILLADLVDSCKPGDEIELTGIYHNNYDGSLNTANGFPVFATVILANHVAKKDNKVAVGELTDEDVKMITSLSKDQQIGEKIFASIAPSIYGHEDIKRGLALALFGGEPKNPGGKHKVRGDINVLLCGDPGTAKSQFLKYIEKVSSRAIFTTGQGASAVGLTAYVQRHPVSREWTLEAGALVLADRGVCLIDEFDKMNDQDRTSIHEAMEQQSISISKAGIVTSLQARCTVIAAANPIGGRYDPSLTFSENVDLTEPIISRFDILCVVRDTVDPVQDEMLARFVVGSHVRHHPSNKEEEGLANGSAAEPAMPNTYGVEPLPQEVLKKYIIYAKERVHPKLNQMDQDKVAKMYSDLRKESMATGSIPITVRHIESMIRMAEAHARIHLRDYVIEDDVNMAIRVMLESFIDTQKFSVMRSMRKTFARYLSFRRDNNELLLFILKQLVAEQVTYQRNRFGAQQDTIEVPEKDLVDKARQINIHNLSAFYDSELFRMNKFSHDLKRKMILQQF
T1 sequence (Q14566 whole entry): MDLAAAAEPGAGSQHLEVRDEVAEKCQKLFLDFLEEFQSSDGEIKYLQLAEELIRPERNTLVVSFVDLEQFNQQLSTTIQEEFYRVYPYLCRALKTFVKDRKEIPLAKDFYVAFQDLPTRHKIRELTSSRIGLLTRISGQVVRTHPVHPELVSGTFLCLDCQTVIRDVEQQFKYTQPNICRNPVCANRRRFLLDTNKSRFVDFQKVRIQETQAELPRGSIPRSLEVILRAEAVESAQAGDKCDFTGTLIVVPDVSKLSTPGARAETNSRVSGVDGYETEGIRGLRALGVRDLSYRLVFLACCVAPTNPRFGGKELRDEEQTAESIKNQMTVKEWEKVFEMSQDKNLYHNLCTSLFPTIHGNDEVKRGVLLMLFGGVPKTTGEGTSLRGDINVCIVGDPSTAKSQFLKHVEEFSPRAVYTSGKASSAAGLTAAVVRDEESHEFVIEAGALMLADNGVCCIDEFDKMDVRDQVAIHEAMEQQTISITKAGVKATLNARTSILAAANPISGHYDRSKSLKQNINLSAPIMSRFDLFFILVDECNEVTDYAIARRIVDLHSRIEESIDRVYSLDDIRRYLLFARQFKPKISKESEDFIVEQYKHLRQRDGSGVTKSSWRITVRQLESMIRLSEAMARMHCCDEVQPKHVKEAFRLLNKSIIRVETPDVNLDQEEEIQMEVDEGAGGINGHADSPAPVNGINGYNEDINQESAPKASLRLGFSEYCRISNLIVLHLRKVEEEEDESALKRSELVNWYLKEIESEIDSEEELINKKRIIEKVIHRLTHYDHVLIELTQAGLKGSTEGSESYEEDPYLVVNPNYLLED
T2 sequence (P49736 2-904): as the sequence (P49736 2-904 limits assumed) above
T2 sequence (Q14566 whole entry): as the sequence (Q14566 whole entry) above

For 17beta-Deacetyltanghinin diol, the “disruption of hMcm2-hMcm6 interaction (co-IP)” value [1] was “weaker activity”, the “induction of apoptosis (sub-G1 population, flow cytometry)” value [2] was “able to induce apoptosis of cancer cells” and the “anti-proliferative (anticancer) activity, in words” value (“anti-proliferative” below) ([3]; WST-1 assay) was “lower anticancer activity than 17beta-Deacetyltanghinin”. The “nuclear localization of endogenous hMcm2 and hMcm6 (immunostaining)” value [4] was “weaker activity”.

In the case of C[C@]12CC[C@H](O)C[C@H]1CC[C@@H]1[C@@H]2CC[C@]2(C)[C@@H](c3ccc(=O)oc3)CC[C@]12O [Bufalin], the “HepG2 cell viability (%)” value [5] is reported as 13.7% and the viability [6] is reported as 37.2%.

With CO[C@H]1[C@H](O)[C@H](O[C@H]2CC[C@@]3(C)[C@H](CC[C@@H]4[C@@H]3CC[C@]3(C)[C@@H](C5=CC(=O)OC5)CC[C@]43O)C2)O[C@@H](C)[C@@H]1O [17beta-Neriifolin] the “disruption of hMcm2-hMcm6 interaction (co-IP)” value [1] was “could also disrupt the hMcm2-hMcm6 interaction”, the “induction of apoptosis (sub-G1 population, flow cytometry)” value [2] was “able to induce apoptosis of cancer cells” and the “nuclear localization of endogenous hMcm2 and hMcm6 (immunostaining)” value [4] was “as efficiently as 17beta-Deacetyltanghinin”.

With CO[C@H]1[C@H](O)[C@H](O[C@H]2CC[C@@]3(C)[C@@H](C2)C[C@@H]2O[C@]24[C@@H]3CC[C@]2(C)[C@H](C3=CC(=O)OC3)CC[C@]42O)O[C@@H](C)[C@@H]1O [17alpha-Deacetyltanghinin, reference compound] the “HepG2 cell viability (%)” value [5] was 97.2%, the “L-02 cell viability (%)” value [7] was 100% and the “anti-proliferative” value ([3]; WST-1 assay) was “little anti-proliferative activity”.

For C[C@]12CC[C@H](O)C[C@H]1CC[C@@H]1[C@@H]2CC[C@]2(C)[C@@H](c3ccc(=O)oc3)C[C@H]3O[C@]132 [Resibufogenin], the “HepG2 cell viability (%)” value [5] was 1.4% and the viability [6] was 37.9%.

With CO[C@H]1[C@H](O)[C@H](O[C@H]2CC[C@@]3(C)[C@H](CC[C@@H]4[C@@H]3CC[C@]3(C)[C@H](C5=CC(=O)OC5)CC[C@]43O)C2)O[C@@H](C)[C@@H]1O [17alpha-Neriifolin, reference compound] the “HepG2 cell viability (%)” value [5] was 100%, the “L-02 cell viability (%)” value [7] was 100% and the “anti-proliferative” value ([3]; WST-1 assay) was “little anti-proliferative activity”.

With CC(=O)O[C@H]1[C@H]2O[C@]23[C@@H]2CC[C@@H]4C[C@@H](O)CC[C@]4(C)[C@H]2CC[C@]3(C)[C@H]1c1ccc(=O)oc1 [Cinobufagin] the “HepG2 cell viability (%)” value [5] was 1.5% and the viability [6] was 39.7%.

With COc1cc([C@@H]2c3cc4c(cc3[C@@H](O[C@@H]3O[C@@H]5CO[C@@H](C)O[C@H]5[C@H](O)[C@H]3O)[C@H]3COC(=O)[C@H]23)OCO4)cc(OC)c1OP(=O)(O)O [VP16, Etoposide phosphate] the “selectivity between cancer and normal cells, in words” value ([3]; cancer vs normal cells, WST-1 assay) was “did not show significant selectivity”.

For CC(=O)O[C@H]1C(=O)[C@@]2(C)[C@H]([C@H](OC(=O)c3ccccc3)[C@]3(O)C[C@H](OC(=O)[C@H](O)[C@@H](NC(=O)c4ccccc4)c4ccccc4)C(C)=C1C3(C)C)[C@]1(OC(C)=O)CO[C@@H]1C[C@@H]2O [Paclitaxel, reference compound], the mortality from toxicity [8] was “the mice died on day 10”, the “selectivity between cancer and normal cells, in words” value [3] was “did not show significant selectivity; also recorded: more toxic to normal liver cells than liver cancer cells” and the “antitumor activity compared with 17beta-Deacetyltanghinin, in words” value [9] was “much less antitumor activities”.
